# Source: patent US20100029674A1, “Methods of Using Phosphoantigen for the Treatment of Cancer” (INNATE PHARMA, S.A., priority 2007, published 2010)
# Where a name gives a salt, the structure may show the parent alone. Where a SMILES comes first, the peptide text is derived from it.
# Assays:
# γ9δ2 T cells = test: Dose range activation of γδ T cells following iv injection of BrHPP (GLP pharmacology studies); type: in vivo, non-human primates
# Vγ9Vδ2 T cells = test: Phase I escalating dose clinical trial: amplification of Vγ9Vδ2 T cells by flow cytometry in chemotherapy-treated patients; type: in vivo, human; details: after second administration (with IL-2)
# Description: Blood samples (4 ml) were withdrawn into EDTA containing tubes. Tubes were shipped overnight at room temperature (RT) before flow cytometry analyses.
# Peripheral lymphocytes were analyzed by flow cytometry on total blood, after triple staining with anti-Vdelta2FITC, anti-CD3PE and anti-CD25PC5 antibodies (Vdelta2-FITC : IMMU389 clone, Immunotech-Beckman-Coulter, Marseilles, France; CD3-PE : UCHTI clone, Immunotech-Beckman-Coulter; CD25PC5 : M-A251 clone, Becton Dickinson, Le Pont de Claix, France).
# Briefly, 100 μl patient blood was incubated 15 min at RT with 10 μl anti-Vdelta2-FITC, 10 μl anti-CD3-PE and 10 μl anti-CD25PC5 antibodies. Antibodies were washed with 3 ml 1× PBS, centrifuged for 4 min at 1300 rpm at RT and supernatant was discarded. Red cells were lysed with the OptiLyse B reagent (Immunotech-Beckman-Coulter, Marseilles, France) according to the manufacturer's instructions. At the final step, stained white blood cells were recovered by centrifugation and resuspended in 300 μl 1× PBS+0.2% PFA. Flow cytometry analysis on viable cells was performed on a FacsSCAN apparatus (Becton Dickinson) with the FacsDiva software.
# (§1) PHOSPHOST™ (Bromohydrin pyrophosphate, BrHPP) was evaluated in an escalating dose clinical trial in patients with advanced/metastatic solid tumors. The therapeutic regimen and pharmaco-toxicology of BrHPP in combination with low dose of IL-2 have previously been characterized in non human primates. The patients received at least 3 injections of BrHPP 3 weeks apart, concomitant with low dose of IL-2 (1 million IU/m^2/day). Pharmacological response was monitored all along the treatment. Based on the results of the phase I trial, a multicenter phase II study on metastatic RCC patients has been scheduled. The clinical drug product was a 200 mg/vial of lyophilized Phosphostim (expressed in mg equivalent of BrHPP anionic form.). The formulation of Phosphostim was reconstituted immediately prior to use with 2 ml of water for injections to make a 100 mg/ml solution. The reconstituted product was diluted in a total volume of 100 ml of ringer lactate buffer infusion vehicle. Phosphostim was administered intravenously over 1 hour.
# All patient cohorts received repeated 3-week cycles of Phosphostim alone for the first cycle and Phosphostim in combination with IL-2 for the subsequent cycles. • first cycle: Phosphostim alone, • subsequent cycles: Phosphostim in combination with IL-2
# Patients were sequentially allotted to cohorts of progressively higher dose levels of Phosphostim. […] The objective tumor response was assessed after 3 cycles (i.e., every 9 weeks). […]
# Drug plasma levels were measured during the first and the second cycles in all patients. […] Biological effect was monitored throughout the trial and studied on PBMC and plasma. […]
# γδ T cells [1] = test: In vitro BrHPP sensitivity test: 8 day culture of peripheral lymphocytes from CML patients undergoing Gleevec therapy, flow cytometry; type: cell-based, human
# Description: The study intends to test the sensitivity of γ962 T cells from oncology patients to BrHPP. It aims at identifying cancers and or situations in which a BrHPP treatment would be relevant and those for which it would be less or not beneficial. In brief, a small sample of blood is sufficient to prepare PBMCs and culture in the presence of BrHPP. A result of the level of in vitro amplification of gamma-delta cells by BrHPP can be obtained in about 8 days.
# Upon reception of blood, 20 ml blood samples were treated by Ficoll gradient to isolate peripheral lymphocytes, which were then frozen. The lymphocytes were cultured in a 96-well plate (1 million cells/ml) for 8 days in the presence of BrHPP. The percentage of γ962 T cells were then determined by a phenotypic assay (flow cytometry).
# In such small scale culture assay, a patient is considered to be responsive to an agonist following 8 days of in vitro stimulation according to two criteria: the percentage of γ962 T cells in culture as well as the rate of amplification of these cells. The amplification rate corresponds to the ratio of number of total γ962 T cells at the end of culture to the total γ962 T cells at the start of culture. The qualitative evaluation of these two criteria was divided into four levels of response, according to the Table 2.
# A patient is considered sensitive to BrHPP if the sum of the values of the two criteria is ++ or +++. A classification of 0 or + is considered non-sensitive.
# [2] = tested on: advanced/metastatic solid tumors; test: Phase I clinical trial: progression free survival; type: in vivo, human
# Description: as §1
# The clinical trial was therefore a phase I, single arm, open-label, national, multi-center, dose-escalation trial in sequential cohorts of patients with advanced/metastatic solid tumors.
# Patients were sequentially allotted to cohorts of progressively higher dose levels of Phosphostim. […] The objective tumor response was assessed after 3 cycles (i.e., every 9 weeks).
# γδ T cells [3] = test: BrHPP-induced amplification of γδ T cells in monkeys treated with imatinib mesylate; type: in vivo; details: BrHPP iv plus IL-2 with oral daily imatinib mesylate 15 mg/kg versus BrHPP alone; days 6 and 20
# human γ9δ2 T cells = test: Combination of BrHPP and tyrosine kinase inhibitors on amplification of Vd2/Vg9 T cells in NOD SCID mice; type: in vivo; details: BrHPP 50 mg/kg i.p. day 0, IL-2 day 0 to 4, TKI from day 0 for 3 to 5 days; peritoneal lavage day 8
# Description: Cell line: human PBMC whose γ9δ2 T cells percentage is higher than 0.5% and which has been previously tested for the “sensitivity test”. They were thawed one hour before injection and maintained for one hour in complete medium (RPMI 1640 supplemented with 2 mM L-glutamine, 1 mM Sodium Pyruvate (all from Gibco-BRL, Life Science, Invitrogen) and 10% heat inactivated Fetal Calf Serum (Fetal clone)) in incubator at 37° C.
# • FITC anti human V82,Immunotech, ref 1464 • PerCpCy5.5 anti human CD3, Pharmingen, ref 552552 • APC anti human Vγ9 • APC Cy7 anti human CD45, Pharmingen, ref 348815 • PE anti human CD56, Pharmingen, ref 556647
# Mice used included (a) NOD SCID female mice aged 8-10 weeks from Charles River Laboratories. Mice were fed and housed under sterilized conditions in Innate-Pharma's animal facility, and (b)NOD SCID female mice aged 10-12 weeks bred at Innate Pharma.
# Each group contained 5 mice. Following transfer of human PBMC cells described above, the 4 groups received BrHPP (50 mg/kg, i.p.) on day 0 and IL-2 (2 M/m^2, s.c.) every day from day 0 to day 4. […] On day 8 mice were sacrificed, cells were collected by peritoneal lavage, and γ9δ2 T cell proliferation was assessed by flow cytometry.
# [4] = tested on: previously treated metastatic breast cancer; details: in vivo; cited from earlier work
# various lung cancers = details: in vivo; cited from earlier work
# [5] = tested on: advanced drug refractory ovarian cancer; details: in vivo; cited from earlier work
# [6] = tested on: histone deacetylase (HDAC); details: cited from earlier work
# [7] = phosphostim plus IL-2, iv injection
molecule,measurement,setting,value
3-(bromomethyl)-3-butanol-1-yl-diphosphate [BrHPP],γ9δ2 T cell levels return to basal level,γ9δ2 T cells; in most animals (except some treated with a high dose),14 days
same,EC50 in vivo,γ9δ2 T cells; [7],about 60 mg/kg
same,dose at which a plateau seems to be reached,γ9δ2 T cells; [7],97 mg/kg
same,dose from which the effect is detected,γ9δ2 T cells; [7],≥ 2.4 mg/kg
same,amplification rate of Vγ9Vδ2 T cells,"Vγ9Vδ2 T cells; Patient 1 (0035), colon cancer, 1500 mg/m2, within six months of Cetuximab/Irinotecan therapy",11 ×
same,amplification rate of Vγ9Vδ2 T cells,"Vγ9Vδ2 T cells; Patient 2 (0039), colon cancer, 1500, Erbitux/Irinotecan ending within three months before",6.4 ×
same,amplification rate of Vγ9Vδ2 T cells,"Vγ9Vδ2 T cells; Patient 3 (0018), metastatic renal cell carcinoma, 1800 mg/m^2, prior BAY 43-9006 and Avastin ending within a month before",6.2 ×
same,amplification rate of Vγ9Vδ2 T cells,"Vγ9Vδ2 T cells; Patient 4 (0017), colon cancer, 1200 mg/m^2, Oxaliplatin/5FU/Elvorine/Vinflumine ending within three months before",4.3 ×
same,non-sensitive patients,γδ T cells [1]; of 19 CML patients undergoing imitanib mesylate treatment,One
same,patients with values of either ++ or +++ (responsive to BrHPP induced amplification),"γδ T cells [1]; of 19 CML patients undergoing imitanib mesylate treatment, sum of the two criteria of Table 2",18 patients
same,PFS (progression free survival),"[2]; Patient 3 (0018), metastatic renal cell carcinoma, two cycles, 1800 mg/m^2",72 weeks
same,PFS,"[2]; Patient 4 (0017), colon cancer, three cycles, 1200 mg/m^2",39 weeks
"Cc1ccc(NC(=O)c2ccc(CN3CCN(C)CC3)cc2)cc1Nc1nccc(-c2cccnc2)n1 [Gleevec, imatinib mesylate, reference compound]",effect on γδ T cell proliferation (percentage of γ9δ2 T cells among total cells),γδ T cells [3],does not significantly impair
same,sensitivity of T cells from Gleevec-treated CML patients to γ9δ2 T cell agonists such as BrHPP,γδ T cells [1]; 8 days culture with BrHPP,remain sensitive
"CNC(=O)c1cc(Oc2ccc(NC(=O)Nc3ccc(Cl)c(C(F)(F)F)c3)cc2)ccn1 [Sorafenib, sorafenib]",effect on γδ T cell proliferation (percentage of γ9δ2 T cells among total cells),human γ9δ2 T cells,does not impair
"CC(=O)O[C@H]1C(=O)[C@@]2(C)[C@H]([C@H](OC(=O)c3ccccc3)[C@]3(O)C[C@H](OC(=O)[C@H](O)[C@@H](NC(=O)c4ccccc4)c4ccccc4)C(C)=C1C3(C)C)[C@]1(OC(C)=O)CO[C@@H]1C[C@@H]2O [taxol, Paclitaxel]",response rate,[4],27-62%
same,response rate,various lung cancers,21-37%
same,response rate,[5],19-36%
"O=C(CCCCC[C@@H]1NC(=O)[C@H]2CCCCN2C(=O)[C@H](Cc2ccccc2)NC(=O)[C@H](Cc2ccccc2)NC1=O)C1CO1 (some centres unmarked) [trapoxin (TPX), trapoxin] (HELM PEPTIDE1{F.F.[O=C([C@H]1CCCCN1[*:1])[*:2]].[O=C(CCCCC[C@H](N[*:1])C(=O)[*:2])C1CO1]}$PEPTIDE1,PEPTIDE1,1:R1-4:R2$$$V2.0)",concentration at which HDAC is inhibited,[6],nanomolar concentrations
CC(/C=C/C(=O)NO)=C\[C@@H](C)C(=O)c1ccc(N(C)C)cc1 [trichostatin A],concentration at which HDAC is inhibited,[6],nanomolar concentrations
